In patent US8664220B2, “Polycyclic compounds as lysophosphatidic acid receptor antagonists” (Amira Pharmaceuticals, Inc., priority 2009, dated 2014):
Values belong to the compound of their own block, whether it stands above or below them.

How the values were obtained:
[1] = test system: bleomycin-induced lung fibrosis; experiment: Bleomycin-induced lung fibrosis model in mice; type: in vivo, mouse; details: acute setting (3 day)
Excerpt: Bleomycin-induced Lung Fibrosis Model in Mice Female CD-1 mice (Harlan, 25-30 g) are housed 4 per cage, given free access to food and water and allowed to acclimate for at least 7 days prior to test initiation. After the habituation phase, mice are lightly anesthetized with isoflurane (5% in 100% O2) and administered with bleomycin sulfate (0.01-5 U/kg, Henry Schein) via intratracheal instillation (Cuzzocrea S et al. Am J Physiol Lung Cell Mol Physiol. 2007 May; 292(5):[…]-104. Epub 2007 Jan. 12.). Mice are returned to their cages and monitored daily for the duration of the experiment. Test compound or vehicle is delivered po, ip or sc daily. The route and frequency of dosing is based on previously determined pharmacokinetic properties. […] BALF is analyzed for concentrations of inflammatory, pro-fibrotic and tissue injury biomarkers including transforming growth factor β1, hyaluronic acid, tissue inhibitor of metalloproteinase-1, matrix matelloproteinase-7, connective tissue growth factor and lactate dehydrogenase activity, using commercially available ELISA. […] Total cell counts are then obtained using a Hemavet hematology system (Drew Scientific, Wayne, Pa.) and differential cells counts are determined using Shandon cytospin (Thermo Scientific, Waltham, Mass.). […] The data are plotted using Graphpad prism and statistical differences between groups determined.

[2] = test system: A2058 human melanoma cells; experiment: LPA1 chemotaxis assay; type: cell-based; details: LPA 100 nM, read-out: IC50, inhibition of LPA-driven chemotaxis
Description: Chemotaxis of the A2058 human melanoma cells was measured using the Neuroprobe ChemoTx® System plates (8 μm pore size, 5.7 mm diameter sites). The filter sites were coated with 0.001% fibronectin (Sigma) in 20 mM Hepes, pH 7.4 and allowed to dry. A2058 cells were serum-starved for 24 hours, then harvested with Cell Stripper and resuspended in DMEM containing 0.1% fatty-acid-free bovine serum albumin (BSA) to a concentration of 1×10^6/ml. Cells were mixed with an equal volume of test compound (2×) in DMEM containing 0.1% fatty-acid-free BSA and incubated at 37° C. for 15 minutes. LPA (100 nM in DMEM containing 0.1% fatty-acid-free BSA) or vehicle was added to each well of the lower chamber and 50 μl of the cell suspension/test compound mix was applied to the upper portion of the ChemoTx plate. Plates were incubated at 37° C. for three hours and then the cells removed from the upper portion by rinsing with PBS and scraping. The filter was dried then stained with HEMA 3 Staining System (Fisher Scientific). The absorbance of the filter was read at 590 nm and IC50s were determined using Symyx Assay Explorer.

human LPA1 = molecular target: T1, human LPA1 (Homo sapiens, UniProt Q92633); experiment: LPA1 calcium flux assay; type: cell-based; details: human LPA1 expressing CHO cells, stimulated with 10 nM LPA; read-out: HLPA1 Ca Flux IC50
T1 construct: the full-length cDNA for human LPA1 was obtained by PCR of the reverse transcription reaction; expressed in transfected cells
T1 sequence (Q92633 whole entry): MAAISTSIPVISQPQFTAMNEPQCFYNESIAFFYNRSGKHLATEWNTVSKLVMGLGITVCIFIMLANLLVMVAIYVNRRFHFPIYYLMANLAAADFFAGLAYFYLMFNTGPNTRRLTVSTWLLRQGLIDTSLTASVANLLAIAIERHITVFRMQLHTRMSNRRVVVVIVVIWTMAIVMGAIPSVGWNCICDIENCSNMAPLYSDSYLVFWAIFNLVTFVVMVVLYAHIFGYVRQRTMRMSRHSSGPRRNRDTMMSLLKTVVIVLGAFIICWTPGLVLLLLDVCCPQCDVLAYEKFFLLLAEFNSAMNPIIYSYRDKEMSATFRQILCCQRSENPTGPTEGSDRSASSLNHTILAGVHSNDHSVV
Method in brief: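 CHO cells stably expressing human LPA1, serum-starved overnight and loaded with Calcium 4 dye in HBSS/20 mM Hepes/0.3% fatty-acid-free HSA, 1 h at 37 °C. Compounds pre-incubated 30 min at room temperature, then 10 nM LPA added; intracellular Ca2+ flux measured and IC50 from titration curves.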

nerve-injured mice = details: pretreatment; cited from earlier work
[3] = test system: mouse epithelial renal cell line, MCT; details: co-treatment with LPA, MCT cells; cited from earlier work
[4] = test system: human foetal lung fibroblasts; details: cited from earlier work
[5] = test system: pancreatic cancer cell lines; details: cited from earlier work
[6] = test system: renal fibrosis, unilateral ureteral obstruction (UUO); details: UUO mice; cited from earlier work

IC50 [2]: < 0.1 µM
IC50 (human LPA1): < 0.3 µM
Compound: Cc1noc(-c2ccc(-c3ccc(C4(C(=O)O)CC4)cc3)cc2)c1C(O)c1cn(Cc2ccccc2)nn1 (single isomer, unassigned) [Compound 1-41, 1-(4′-{4-[(1-Benzyl-1H-[1,2,3]triazol-4-yl)-hydroxy-methyl]-3-methyl-isoxazol-5-yl}-biphenyl-4-yl)-cyclopropanecarboxylic acid]
collagen concentration in broncheoalveolar lavage fluid (BALF) [1]: significantly reduced
total protein concentration in broncheoalveolar lavage fluid (BALF) [1]: significantly reduced

IC50 [2]: < 0.1 µM
IC50 (human LPA1): < 0.3 µM
Compound: Cc1noc(-c2ccc(-c3ccc(C4(C(=O)O)CC4)cc3)cc2)c1C(O)c1cn(Cc2ccccc2)nn1 (stereo not drawn) [Compound 1-25, 1-(4′-{4-[(1-Benzyl-1H-[1,2,3]triazol-4-yl)-hydroxy-methyl]-3-methyl-isoxazol-5-yl}-biphenyl-4-yl)-cyclopropanecarboxylic acid]

Compound: C[C@@H](N)[C@H]1CC[C@H](C(=O)Nc2ccncc2)CC1 [Compound Y-27632]
allodynia and hyperalgesia (nerve-injured mice): completely abolished

Compound: Cc1noc(-c2ccc(CSCCC(=O)O)cc2)c1NC(=O)OC(C)c1ccccc1Cl (stereo not drawn) [Ki16425]
LPA-induced increase in expression of the profibrotic cytokine CTGF [3]: almost completely suppressed
chemotaxis of human foetal lung fibroblasts induced by BAL from IPF patients [4]: blocked
LPA-induced and ascites-induced invasion activity ([5]; highly peritoneal metastatic pancreatic cancer cell line): blocked
in vitro migration in response to LPA and peritoneal fluid (ascites) from pancreatic cancer patients ([5]; pancreatic cancer cell lines): effectively blocked
development of renal fibrosis [6]: closely resembled the LPA1 (−/−) mice
